Patent publication USRE32519E, “Sulfur-containing isoquinoline derivatives, process for the preparation thereof and pharmaceutical compositions containing them” (Chinoin Gyogyszer es Vegyeszeti Termekek Gyara, priority 1979, dated 1987)
Counter-ions that a name gives are not always drawn. Like-named read-outs stand apart in the source and are kept apart here.

Tests used:
serotonine = serotonine antagonistic effect on gastric fundus strip of rats; conditions: 10 μg/ml. antagonistic dose
[1] = acute toxicity (LD50) on mice; conditions: mouse, in vivo, po
[2] = diuretic activity on rats, quantity of urine passed in 4 hours; assay type: in vivo; conditions: 2 mg/kg. dose, compared with 2 mg/kg. p.o. Hypothiazid
Method: (§1) The diuretic activity of the compounds of the formula (I) was tested on rats. The quantity of the urine passed in 4 hours and of the discharged Na^+ and K^+ ions were determined by known methods (Arzneimitt. Forsch. 27, 559; 1978). The antiinflammatory activity was tested in paw oedema on rats. The oedema was induced by carrageenien and the inhibition was expressed in %.

cyclic oxygenase = target: T1, cyclic oxygenase (Ovis aries, UniProt P05979); experiment: effect on biosynthesis of prostaglandins: activity of cyclic oxygenase, oxygen consumption with arachidonic acid substrate (Clark electrode); assay type: biochemical, sheep; conditions: for AC50: concentration for 50% increase in oxygen consumption; for EC (100% increase): concentration for 100% increase in oxygen consumption, read-out: AC100%
T1 construct: As an enzyme source a homogenizate of sheep spermatocele; from tissue; host or cells: homogenate of sheep 'spermatocele' (read as seminal vesicle)
T1 sequence (P05979 25-600): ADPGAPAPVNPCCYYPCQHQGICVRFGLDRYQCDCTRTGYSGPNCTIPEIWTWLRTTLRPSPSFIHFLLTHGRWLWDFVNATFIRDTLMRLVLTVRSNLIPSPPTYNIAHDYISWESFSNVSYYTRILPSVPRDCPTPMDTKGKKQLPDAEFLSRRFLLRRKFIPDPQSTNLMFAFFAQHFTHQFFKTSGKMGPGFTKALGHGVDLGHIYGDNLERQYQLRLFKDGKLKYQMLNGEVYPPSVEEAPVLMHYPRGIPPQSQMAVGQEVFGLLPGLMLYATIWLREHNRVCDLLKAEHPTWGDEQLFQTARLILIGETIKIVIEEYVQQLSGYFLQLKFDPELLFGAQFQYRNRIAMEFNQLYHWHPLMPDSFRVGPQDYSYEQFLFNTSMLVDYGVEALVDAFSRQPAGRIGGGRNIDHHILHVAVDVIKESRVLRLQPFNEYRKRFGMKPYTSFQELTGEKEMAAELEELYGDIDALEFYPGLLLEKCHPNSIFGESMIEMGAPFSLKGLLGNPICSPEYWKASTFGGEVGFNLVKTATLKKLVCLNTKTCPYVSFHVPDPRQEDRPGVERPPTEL
Method: The effect of the compounds of the formula (I) on the biosynthesis of prostaglandins was determined by a known technique (J. Biol. Chem., 246, 6700; 1971). As an enzyme source a homogenizate of sheep spermatocele and as a substrate arachidonic acid were used. The transformation of the substrate, which involves oxygen consumption, was monitored on the basis of the change of the concentration of dissolved oxygen, which was measured by a Clark electrode. During the measurements the concentration of the active compounds, which involved a 50% and 100%, respectively, […] in the oxygen consumption were determined. The concentrations were expressed in μM/lit. The results obtained are contained in the Table below. |The effect of the compounds of the formula |(I) on the activity of cyclic oxygenase |Substrate: arachidonic acid

paw oedema = experiment: antiinflammatory activity, carrageenien-induced paw oedema on rats; assay type: in vivo
Method: as §1, with “carrageenien and the” left out

[3] = system: isolated trachea of guinea pigs; experiment: relaxant activity on isolated trachea of guinea pigs; conditions: for relaxant effect relative to theophylline: 1 μg/ml. dose; for relaxant activity relative to theophylline: related to a 95 to 100% relaxation
Method: According to a test carried out on isolated trachea of guinea pigs (J. Pharm. Pharmac. 31, 798; 1979) the compounds prepared according to the invention have a relaxant activity. […] The activity of the compounds obtained in Example 4 is significant also at a dose of 0.1 μg/ml.

acetylcholine = experiment: antagonistic activity against acetylcholine on ileum of guinea pigs
histamine = experiment: antagonistic activity against histamine on ileum of guinea pigs; conditions: for effect against histamine relative to theophylline: 50 μg/ml. antagonistic dose

Compound | inhibition (serotonine antagonistic effect) (serotonine) [%] | AC50 (cyclic oxygenase) [µM] | EC (100% increase) (cyclic oxygenase) [µM] | further results
COc1cc2c(cc1OC)C(C(C#N)SCC(=O)O)=NCC2 (stereo not drawn) [Example 6, α-carboxymethylmercapto-6,7-dimethoxy-3,4-l-dihydro-1-isoquinolyl-acetonitrile] | 16 | 60 | 225 | LD50 ([1]; p.o. on mice, read-out: LD50): > 500 mg/kg; increase of the quantity of the urine secreted [2]: to the same extent as a 2 mg/kg. p.o. dose of Hypothiazid
N#CC(SCC(=O)O)C1=NCCc2ccccc21 (stereo not drawn) [Example 5, α-carboxy-methyl-mercapto-3,4-dihydro-isoquinolyl-acetonitrile] |  | 40 | 80 | 
COc1cc2c(cc1OC)C(C(C#N)SCCO)=NCC2 (stereo not drawn) [Example 3, α-(2-hydroxy-ethylmercapto)-6,7-dimethoxy-3,4-dihydro-1-isoquinolyl-acetonitrile] |  | 100 | 200 | inhibition in paw oedema test (paw oedema; 100 mg/kg dose, rats (route not given)): 20%; LD50 ([1]; per os on mice, read-out: DL): > 500 mg/kg
COc1cc2c(cc1OC)C(C(C#N)SCC(=O)NN)=NCC2 (stereo not drawn) [Example 22, α-(carbohydrazidomethyl)-mercapto-6,7-dimethoxy-3,4-dihydro-1-isoquinolyl-acetonitrile] |  | 720 | 1800 | 
CCN(CC)CCSC(C#N)C1=NCCc2cc(OC)c(OC)cc21 (stereo not drawn) [Example 14, α-(2-diethylaminoethyl)-mercapto-6,7-dimethoxy-3,4-dihydro-1-isoquinolyl-acetonitrile hydrochloride] |  | 280 | 395 | 
CCOC(=O)CSC(C#N)C1=NCCc2cc(OC)c(OC)cc21 (stereo not drawn) [Example 18, α(ethoxycarbonyl)-methyl-mercapto-6,7-dimethoxy-3,4dihydro-1-isoquinolyl-acetonitrile] |  | 69 | 138 | 
COc1cc2c(cc1OC)C(C(C#N)SCCCO)=NCC2 (stereo not drawn) [Example 4, α-(3-hydroxy-propylmercapto)-6,7-dimethoxy-3,4-dihydro-1-isoquinolyl-acetonitrile] | 80 | 70 | 140 | relaxant effect relative to theophylline [3]: five-times more effective than theophylline; relaxant activity ([3]; dose of 0.1 μg/ml.): significant; relaxant activity relative to theophylline [3]: five-times higher activity than theophylline; inhibition in paw oedema test (paw oedema; 100 mg/kg. p.o. dose, rats): 20%; LD50 ([1]; p.o. on mice, read-out: LD50): > 500 mg/kg; activity against acetylcholine relative to theophylline (acetylcholine; 50 μg/ml. antagonistic dose): six-times more active; maximum inhibition (acetylcholine) (acetylcholine; in a dose of 50 μg/ml.): 100%; maximum inhibition (histamine) (histamine; 50 μg/ml.): 100%; effect against histamine relative to theophylline (histamine): six-times more potent
COc1cc2c(cc1OC)C(C(C#N)SCCC(=O)O)=NCC2 (centres unmarked) [Example 9] |  | 95 |  | relaxant effect relative to theophylline [3]: only half of its effect; relaxant activity relative to theophylline [3]: the same activity as theophylline; LD50 ([1]; p.o. on mice, read-out: LD50): > 500 mg/kg; activity against acetylcholine relative to theophylline (acetylcholine; 50 μg/ml. antagonistic dose): the same activity; maximum inhibition (acetylcholine) (acetylcholine; in a dose of 100 μg/ml.): 55%; increase of the quantity of the urine secreted [2]: to the same extent as a 2 mg/kg. p.o. dose of Hypothiazid; effect against histamine relative to theophylline (histamine): the same effect as theophylline; maximum inhibition (histamine) (histamine; 100 μg/ml.): 26%
N#CC(SCCC(=O)O)C1=NCCc2ccccc21 (stereo not drawn) [Example 8, α-(2-carboxyethyl)-mercapto-3,4-dihydro-1-isoquinolyl-acetonitrile] | 8 | 48 | 96 | 
COc1cc2c(cc1OC)C(C(C#N)SCCN(C)C)=NCC2 (stereo not drawn) [Example 15, α-(2-dimethylaminoethyl)-mercapto-6,7-dimethoxy-3,4-dihydro-1-isoquinolyl-acetonitrile hydrochloride] |  | 62 | 124 | 
COc1cc2c(cc1OC)C(C(C#N)SC(C)C(=O)O)=NCC2 (stereo not drawn) [Example 12, α-(1-carboxy-1-ethyl)-mercapto-6,7-dimethoxy-3,4-dihydro-1-isoquinolyl-acetonitrile] |  | 105 |  | 
Cn1c(=O)c2[nH]cnc2n(C)c1=O [theophylline, reference compound] | 8 |  |  | inhibition against acetylcholine (acetylcholine; 50 μg/ml. antagonistic dose): 16%; maximum inhibition (acetylcholine) (acetylcholine; at a dose of 200 μg/ml.): 30%
